Structures are written as SMILES.

In this data set the test system is Phospholipidosis. The data set is described as follows: Literature-mined public compounds from Kruhlak et al phospholipidosis modelling dataset.
Turning to `CC1(C)S[C@@H]2[C@H](NC(=O)[C@H](N)c3ccc(O)cc3)C(=O)N2[C@H]1C(=O)O` [AMOXICILLIN], the Phospholipidosis result is reported as “Negative: based on the absence of positive reported data from WMDD”. On to `N=C(N)c1ccc(/C=C/c2ccc(C(=N)N)cc2)cc1` [STILBAMIDINE], for which the Phospholipidosis result is “Positive: weak inducer based on presence of foamy macrophages and cytoplasmic vacuolations”. On to `C[C@H]1CCC[C@H](O)CCCCCc2cc(O)cc(O)c2C(=O)O1` [ZERANOL], for which the Phospholipidosis entry is “Negative: based on the absence of positive reported data from WMDD”. The same measure for `CCN(CC)CCCC(C)Nc1ccnc2cc(Cl)ccc12` (stereo not drawn) [CHLOROQUINE]: “Positive: strong inducer confirmed by electron microscopy”; for `CN1CC(O)C2=C/C(=N/NC(N)=O)C(=O)C=C21` (stereo not drawn) [CARBAZOCHROME]: “Negative: based on the absence of positive reported data from WMDD”; for `OCCOCCN1CCN(C(c2ccccc2)c2ccc(Cl)cc2)CC1` (stereo not drawn) [HYDROXYZINE]: “Positive: strong inducer confirmed by electron microscopy”. The same measure for `Cc1ccc(C(=O)Nc2ccc(S(=O)(=O)O)c3cc(S(=O)(=O)O)cc(S(=O)(=O)O)c23)cc1NC(=O)c1cccc(NC(=O)Nc2cccc(C(=O)Nc3cc(C(=O)Nc4ccc(S(=O)(=O)O)c5cc(S(=O)(=O)O)cc(S(=O)(=O)O)c45)ccc3C)c2)c1` [SURAMIN]: “Positive: weak inducer based on presence of foamy macrophages and cytoplasmic vacuolations”. For the molecule `CC[C@@H](C(N)=O)N1CCCC1=O`, the Phospholipidosis result is “Negative: based on the absence of positive reported data from WMDD”. The same measure for `CN1CC[C@]23c4c5ccc(O)c4O[C@H]2C(=O)CC[C@@]3(O)[C@H]1C5` [OXYMORPHONE]: “Negative: based on the absence of positive reported data from WMDD”; for `Cc1onc(-c2c(F)cccc2Cl)c1C(=O)N[C@@H]1C(=O)N2[C@@H]1SC(C)(C)[C@@H]2C(=O)O` [FLOXACILLIN]: “Negative: based on the absence of positive reported data from WMDD”. The same measure for `C[C@H]1[C@H]2Cc3ccc(O)cc3[C@]1(C)CCN2CC1CC1` [CYCLAZOCINE]: “Negative: based on the absence of positive reported data from WMDD”; for `CC(=O)N1CCN(c2ccc(OCC3COC(Cn4ccnc4)(c4ccc(Cl)cc4Cl)O3)cc2)CC1` (stereo not drawn) [KETOCONAZOLE]: “Positive: weak inducer based on presence of foamy macrophages and cytoplasmic vacuolations”. The same measure for `CCC(C)(C)N/C(N)=N/C#N` [GUANCYDINE]: “Negative: based on the absence of positive reported data from WMDD”; for `O=P(O)(O)OCC(O)CO` (stereo not drawn): “Negative: based on the absence of positive reported data from WMDD”. For the molecule `CCCOC(=O)c1ccc(O)cc1` [PROPYLPARABEN], the Phospholipidosis result is on record as “Negative: based on the absence of positive reported data from WMDD”. Take `CC[C@H]1OC(=O)[C@H](C)[C@@H](O[C@H]2C[C@@](C)(OC)[C@@H](O)[C@H](C)O2)[C@H](C)[C@@H](O[C@@H]2O[C@H](C)C[C@H](N(C)C)[C@H]2O)[C@](C)(OC)C[C@@H](C)C(=O)[C@H](C)[C@@H](O)[C@]1(C)O` [CLARITHROMYCIN]: the Phospholipidosis entry is “Negative: confirmed by electron microscopy”. The same measure for `CCC[C@H](N[C@@H](C)C(=O)N1[C@H](C(=O)O)C[C@@H]2CCCC[C@@H]21)C(=O)OCC` [PERINDOPRIL]: “Negative: based on the absence of positive reported data from WMDD”. Turning to `COc1cc(CC2c3c(cc(OC)c(OC)c3OC)CC[N+]2(C)CCCOC(=O)CCC(=O)OCCC[N+]2(C)CCc3cc(OC)c(OC)c(OC)c3C2Cc2cc(OC)c(OC)c(OC)c2)cc(OC)c1OC.[Cl-].[Cl-]` (stereo not drawn) [DOXACURIUM CHLORIDE], the Phospholipidosis result was “Negative: based on the absence of positive reported data from WMDD”. Take `C[C@]12COC(=O)C[C@@H]1CC[C@@H]1[C@@H]2CC[C@@]2(C)[C@H]1CC[C@]2(C)O` [OXANDROLONE]: the Phospholipidosis result is listed as “Negative: based on the absence of positive reported data from WMDD”. The same measure for `CN[C@@H]1[C@H](O)[C@H](NC)[C@H]2O[C@@]3(O)C(=O)C[C@@H](C)O[C@H]3O[C@@H]2[C@H]1O` [SPECTINOMYCIN]: “Positive: weak inducer based on presence of foamy macrophages and cytoplasmic vacuolations”. Take `CCCN[C@@H]1[C@H](C)[C@@H](O)[C@](C)(O)[C@@H](CC)OC(=O)[C@H](C)[C@@H](O[C@H]2C[C@@](C)(OC)[C@@H](O)[C@H](C)O2)[C@H](C)[C@@H](O[C@@H]2O[C@H](C)C[C@H](N(C)C)[C@H]2O)[C@](C)(O)C[C@H]1C`: the Phospholipidosis result is “Positive: weak inducer based on presence of foamy macrophages and cytoplasmic vacuolations”. For the molecule `CN(C)CCOC(c1ccc(Cl)cc1)c1ccccn1` (stereo not drawn) [CARBINOXAMINE], the Phospholipidosis entry was “Negative: based on the absence of positive reported data from WMDD”. The same measure for `CSc1ccc2c(c1)N(CCC1CCCCN1C)c1ccccc1S2` (stereo not drawn) [THIORIDAZINE]: “Positive: weak inducer based on presence of foamy macrophages and cytoplasmic vacuolations”; for `Cc1c(-c2ccccc2)oc2c(C(=O)OCCN3CCCCC3)cccc2c1=O` [FLAVOXATE]: “Negative: based on the absence of positive reported data from WMDD”. In the case of `C#CCN(C)[C@H](C)Cc1ccccc1` [SELEGILINE], the Phospholipidosis entry is listed as “Negative: based on the absence of positive reported data from WMDD”.

Turning to `CN[C@@H](C)[C@H](O)c1ccccc1` [EPHEDRINE], the Phospholipidosis result is given as “Negative: based on the absence of positive reported data from WMDD”. Regarding `CCC(=O)c1ccc(O)cc1` [PAROXYPROPIONE], the Phospholipidosis entry was “Negative: based on the absence of positive reported data from WMDD”. The same measure for `CCC[C@@H](NC(=O)N1C(=O)C(CC)(CC)[C@@H]1Oc1ccc(C(=O)N2CCN(C)CC2)cc1)c1ccc2c(c1)OCO2`: “Positive: weak inducer based on presence of foamy macrophages and cytoplasmic vacuolations”. The same measure for `OCC(Br)(Br)Br` [TRIBROMOETHANOL]: “Negative: based on the absence of positive reported data from WMDD”. The same measure for `CCC1(CC)C(=O)NC(=O)NC1=O` [BARBITAL]: “Negative: based on the absence of positive reported data from WMDD”; for `O=c1cc[nH]c(=S)[nH]1` [THIOURACIL]: “Negative: based on the absence of positive reported data from WMDD”; for `C[C@]1(Cn2ccnn2)[C@H](C(=O)O)N2C(=O)C[C@H]2S1(=O)=O` [TAZOBACTAM]: “Negative: based on the absence of positive reported data from WMDD”. For `C=CCN1C(=O)C(CC(C)C)NC1=S` (stereo not drawn) [ALBUTOIN], the Phospholipidosis result is listed as “Negative: based on the absence of positive reported data from WMDD”. The same measure for `CC(Cc1ccccc1)NCCC(c1ccccc1)c1ccccc1` (stereo not drawn) [PRENYLAMINE]: “Positive: weak inducer based on presence of foamy macrophages and cytoplasmic vacuolations”; for `NCCc1cc(O)c(O)c(O)c1`: “Positive: strong inducer confirmed by electron microscopy”.

On to `CC(C)Nc1cccnc1N1CCN(C(=O)c2cc3cc(NS(C)(=O)=O)ccc3[nH]2)CC1` [DELAVIRDINE], for which the Phospholipidosis entry is given as “Negative: based on the absence of positive reported data from WMDD”. For `N=C(N)NCCN1CCCCCCC1` [GUANETHIDINE], the Phospholipidosis entry is recorded as “Negative: based on the absence of positive reported data from WMDD”.

With `CC(C)/N=c1\cc2n(-c3ccc(Cl)cc3)c3ccccc3nc-2cc1Nc1ccc(Cl)cc1` [CLOFAZIMINE], the Phospholipidosis result is on record as “Negative: based on the absence of positive reported data from WMDD”. With `CN/C(=N/CCSCc1nc[nH]c1C)NC#N` [CIMETIDINE], the Phospholipidosis entry is reported as “Negative: confirmed by electron microscopy”.

In the case of `Sc1ncnc2nc[nH]c12` [MERCAPTOPURINE ANHYDROUS], the Phospholipidosis result is listed as “Negative: based on the absence of positive reported data from WMDD”. The same measure for `Cc1ccc(S(=O)(=O)NC(=O)NN2CC3CCCC3C2)cc1` (stereo not drawn) [GLICLAZIDE]: “Negative: based on the absence of positive reported data from WMDD”; for `CC(S)C(=O)NCC(=O)O` (stereo not drawn) [TIOPRONIN]: “Negative: based on the absence of positive reported data from WMDD”; for `NC[C@H]1O[C@H](O[C@H]2[C@H](O)[C@@H](O[C@H]3O[C@H](CO)[C@@H](O)[C@H](N)[C@H]3O)[C@H](N)C[C@@H]2N)[C@H](N)C[C@@H]1O` [TOBRAMYCIN]: “Positive: strong inducer confirmed by electron microscopy”. The same measure for `CC(C)NCC(O)COc1ccc(CCOCC2CC2)cc1` (stereo not drawn) [BETAXOLOL]: “Negative: based on the absence of positive reported data from WMDD”; for `CN1CCCN(C(c2ccccc2)c2ccc(Cl)cc2)CC1` (stereo not drawn) [HOMOCHLORCYCLIZINE]: “Positive: strong inducer confirmed by electron microscopy”. Regarding `CC(=O)OC(C)C[N+](C)(C)C` (stereo not drawn) [METHACHOLINE], the Phospholipidosis entry is “Negative: based on the absence of positive reported data from WMDD”. The same measure for `CC(N)Cc1ccccc1` (stereo not drawn) [AMPHETAMINE]: “Negative: based on the absence of positive reported data from WMDD”; for `CC(=O)O[C@]1(C(C)=O)CC[C@H]2[C@@H]3C=C(Cl)C4=CC(=O)CC[C@]4(C)[C@H]3CC[C@@]21C` [CHLORMADINONE ACETATE]: “Negative: based on the absence of positive reported data from WMDD”. The same measure for `CC(=O)Oc1cc(C(C)C)c(OCCN(C)C)cc1C` [MOXISYLYTE]: “Negative: based on the absence of positive reported data from WMDD”; for `CCCNCCc1ccc(NS(=O)(=O)c2ccc(OC(F)(F)F)cc2)cc1`: “Positive: strong inducer confirmed by electron microscopy”; for `COC(=O)c1ccc(O)cc1` [METHYLPARABEN]: “Negative: based on the absence of positive reported data from WMDD”. In the case of `N=C(N)c1ccc(/C=C/c2ccc(C(=N)N)cc2O)cc1` [HYDROXYSTILBAMIDINE], the Phospholipidosis result is reported as “Negative: based on the absence of positive reported data from WMDD”. The same measure for `COc1cc(Cc2cnc(N)nc2N)cc(OC)c1OC` [TRIMETHOPRIM]: “Negative: based on the absence of positive reported data from WMDD”.
